# Assays:
# [1] = tested on: blood coagulation (aPTT); assay: Phase I bolus plus 72 hour infusion study: aPTT; type: in vivo, human; conditions: from relationship of aPTT change and ODSH level, FIG. 23
# Method: A study was performed in eight (8) healthy adult male and female subjects to assess the effects of a bolus dose and 72 hour infusion of 2-O, 3-O desulfated heparin. The study was a Phase I study with a three day treatment period. Doses were adjusted to maintain an aPTT level of 40-45 seconds. Subjects were between the ages of 18 and 60, were not pregnant, and were normal in body weight. They all had normal coagulation function and hemoglobin values at baseline.
# Subjects received an initial bolus of 8 mg/kg of ODSH over 15 minutes, followed by 72 hours continuous infusion beginning at 0.58 mg/kg/hr. For each subject ODSH as a 50 mg/ml formulation was diluted with normal saline and administered as a bolus infused over 15 minutes containing the calculated amount of ODSH the subject was to receive, followed by infusion of ODSH diluted in saline. The infusion dose was adjusted to maintain an aPTT of 40-45 seconds. […] Using values for aPTT and ODSH levels, pharmacokinetic parameters were calculated by noncompartmental methods using a commercial software program (PhAST 2.3-001). The following pharmacokinetic parameters were calculated as above: Cmax; Kel; tmax; AUC O-t; AUCinf, t1/2; CL; and Vdss.
# [2] = tested on: myeloperoxidase (MPO) activity; assay: Porcine ischemia/reperfusion model: myeloperoxidase activity in myocardium; type: in vivo, pig; conditions: ODSH 45 mg/kg; FIG. 11
# Text: Arterial access was achieved via bilateral femoral artery cut-downs for the insertion of 8F sheaths. Central venous and carotid access was achieved via a neck incision to expose the external jugular vein and common carotid artery. Animals were then anticoagulated with 50 U/kg of unfractionated heparin to maintain an activated clotting time (ACT) between 250-350 seconds, prior to ischemia. A 7-8 Fr pigtail catheter was placed in the left ventricular cavity to measure pressure and for injection of 15 μneutron-activated microspheres. […] Baseline cardiodynamic and hemodynamic data were measured using a solid state transducer-tipped catheter in the left ventricle (Millar Instruments, Houston, Tex.) to measure left ventricular pressure, and a fluid-filled transducer connected to the side port of the femoral artery sheath to measure peripheral arterial pressure. Approximately 3-4 million neutron-activated microspheres (BioPhysics Assay Laboratory, Inc, Worcester, Ma) (15 μm) were delivered through a pig-tail catheter into the left ventricle over a 30 second period, to quantify regional myocardial blood flow (RMBF). […] Balloon occlusion time was 75 minutes with coronary occlusion confirmed by contrast angiography, ST segment changes on electrocardiography, and quantitatively confirmed by microspheres delivered at the end of ischemia, as described above. […]
substance,measurement,setting,value
"2-O, 3-O desulfated heparin [ODSH]",aPTT above baseline at ODSH blood concentrations of 100 μg/mL,[1],approximately 50 seconds
same,aPTT absolute value at ODSH blood concentrations of 100 μg/mL,[1],about 75 seconds
same,MPO activity in ischemic-reperfused myocardium,[2],significantly reduced

# Reference: patent publication US20090238852A1, “METHODS FOR CONTROLLING INTRACELLULAR CALCIUM LEVELS ASSOCIATED WITH AN ISCHEMIC EVENT” (University of Utah Research Foundation, priority 2008, published 2009)
